Results taken from patent US20090105329A1 (priority 2005, published 2009).
Entries after “also recorded” stand apart in the source; their conditions may differ. Where two headings read alike, the source gives them in different places. Each block holds one compound with its values, some of them ahead of it.

Key:
[1] = Plasma pharmacokinetics of SAHA and its two major metabolites (LC-MS/MS) in the phase I study; assay type: in vivo, human
Method: Samples are assayed by the HPLC method (Kelly W K, Richon V M, O'Connor O, et al. Clin. Cancer Res. 2003; 9:3578-88) or by LC/MS assay. […] Quantitation of Paclitaxel and total platinum concentrations is done by validated methodology. […] Compartmental modeling is done with the computer program ADAPT II. Non-compartmental modeling is done with the […] function as implemented by the computer program […]. […] The time that Paclitaxel concentrations remain above 0.05 μM is determined using a limited sampling strategy with the 24-hour sample. […] Methods: Eligible patients were those with advanced solid malignancies who were candidates for combination therapy with Carboplatin and Paclitaxel. […] Carboplatin and Paclitaxel were given on Day 1 of each cycle.

[2] = tested on: patients with advanced solid malignancies; experiment: Phase I study of SAHA in combination with Carboplatin and Paclitaxel: dose-limiting and other toxicities; assay type: in vivo, human; details: in the combination
Method: The study is designed to define dose-limiting and non-dose limiting toxicities associated with this combination, and to obtain evidence of anti-tumor activity.
Both Carboplatin and Paclitaxel are administered on Day 1 of each treatment cycle. […] Each treatment cycle lasts for 3 weeks.
Definition of dose-limiting toxicity (DLT): Toxicities must be attributable to the study drug(s) to constitute DLT. […] If baseline value is elevated prior to drug therapy, an increase is not considered a DLT unless there is an elevation by more than two grades, and it is of clinical significance. Management and dose modifications associated with the above adverse events are outlined below.
Dosing delays and dose modifications: No intra-patient dose escalation is used. Chemotherapy doses may be reduced for hematological and non-hematological effects. Dose adjustments are to be made according to the system showing the greatest degree of toxicity. Toxicity is graded using the National Cancer Institute Common Toxicity Criteria (NCI CTC) for adverse events (version 3.0). Treatment may be delayed no more than two weeks to allow recovery from toxicity. Dose adjustments for toxicity are made according to the following guidelines.
Methods: Eligible patients were those with advanced solid malignancies who were candidates for combination therapy with Carboplatin and Paclitaxel. […] Carboplatin and Paclitaxel were given on Day 1 of each cycle.

[3] = tested on: carcinogen-induced (N-methylnitrosourea) mammary tumors; details: rats, SAHA in their diet over the 130 days of the study; cited from earlier work
[4] = tested on: patients with advanced solid malignancies; details: on this schedule; cited from earlier work
[5] = oral SAHA with food; cited from earlier work
[6] = human, plasma, po, oral SAHA, patients, plasma, Example 8, read-out: t1/2 (elimination half life) (converted)

half-life ([1]; human, plasma, po, Example 9, further results, patients after oral SAHA, read-out: t1/2 of acid metabolite (converted)): 4.1 ± 1.3 h
half-life [1, 6]: ~6 h
Cmax relative to SAHA Cmax ([1]; metabolite in plasma after oral SAHA, fold greater than SAHA Cmax): 1.5-7 fold
Compound: O=C(O)CCC(=O)Nc1ccccc1 [4-Anilino-4-oxobutanoic acid]

Compound: [NH2][Pt]1([NH2])[O]C(=O)C2(CCC2)C(=O)[O]1 [Carboplatin, platinum, diammine [1,1-cyclobutane-dicarboxylato (2-)-0,0′]-, (SP-4-2)]
Dose recommended for phase II studies ([2]; Day 1, 3 week cycles): 6 AUC

Compound: CC(=O)O[C@H]1C(=O)[C@@]2(C)[C@H]([C@H](OC(=O)c3ccccc3)[C@]3(O)C[C@H](OC(=O)[C@H](O)[C@@H](NC(=O)c4ccccc4)c4ccccc4)C(C)=C1C3(C)C)[C@]1(OC(C)=O)CO[C@@H]1C[C@@H]2O [Paclitaxel, 5-beta, 20-epoxy-1,2-alpha, 4,7-beta, 10-beta, 13-alpha-hexahydroxytax-11-en-9-one 4,10-diacetate 2-benzoate 13-ester with (2R,3S)—N-benzoyl-3-phenylisoserine]
Dose recommended for phase II studies ([2]; Day 1, 3 week cycles): 200 mg/m^2

t1/2 (elimination half life) ([1]; human, in vivo, po): approximately 2 h
Compound: O=C(CCCCCCC(=O)Nc1ccccc1)NO[C@@H]1O[C@H](C(=O)O)[C@@H](O)[C@H](O)[C@H]1O [SAHA glucuronide]

SAHA clearance on Day 1 as compared to Day -4 ([1]; Example 9, most recent data): potential decreased clearance
half-life [1, 6]: 1.6 ± 0.5 h
Tmax ([1]; human, plasma, po, read-out: Tmax (time to maximum plasma or serum concentration)): 0.5 to 2 h
AUC versus dose ([1]; oral SAHA 200-400 mg, patients): increased with dose
absorption ([1]; oral SAHA, patients): rapidly absorbed
CL/F (clearance/bioavailability) ([1]; oral SAHA, patients, Example 8): 5.8 ± 1.7 L/min
Compound: O=C(CCCCCCC(=O)Nc1ccccc1)NO [SAHA, N-Hydroxy-N′-phenyl octanediamide]
development and continued growth of carcinogen-induced (N-methylnitrosourea) mammary tumors [3]: effective at inhibiting
RP2D of single agent SAHA [4]: 400 mg
Dose recommended for phase II studies ([2]; PO QD (Days 1-14), 3 week cycles): 400 mg
bioavailability when taken with food [5]: does not alter the bioavailability
effect of Carboplatin and Paclitaxel on SAHA pharmacokinetics ([1]; Day -4 (SAHA alone) vs Day 1 (with Carboplatin and Paclitaxel)): did not alter SAHA pharmacokinetics; also recorded: not altered
